Reference: ChEMBL document CHEMBL5236669, “Identification of pyrimidinyl piperazines as non-iminosugar glucocerebrosidase (GCase) pharmacological chaperones” (Bioorg Med Chem Lett, 2023)
Values after ≈ are worked out from the molar mass of the structure shown.

Assays:
[1] = Metabolic stability in human liver microsomes assessed as intrinsic clearance; format: ADME, Microsome; conditions: read-out: CLH
[2] = Solubility of the compound in PBS; format: physicochemical
[3] = biological target: Lysosomal acid glucosylceramidase (Homo sapiens, UniProt P04062, N409S); assay: Chaperone activity at GCase N370S GBA mutant in patient derived fibroblast cell using 4-methylumbelliferyl-beta-D-glucopyranoside as substrate assessed as substrate cleavage by measuring concentration required for maximal response incubated for 5 days by fluorescence based assay
LLC-PK1 = assay: Corrected flux ratio of permeability in pig LLC-PK1 cells overexpressing MDR1 to pig LLC-PK1 cells; format: ADME, cell-based, Sus scrofa

Lysosomal acid glucosylceramidase, sequence (P04062 40-536 N409S limits assumed): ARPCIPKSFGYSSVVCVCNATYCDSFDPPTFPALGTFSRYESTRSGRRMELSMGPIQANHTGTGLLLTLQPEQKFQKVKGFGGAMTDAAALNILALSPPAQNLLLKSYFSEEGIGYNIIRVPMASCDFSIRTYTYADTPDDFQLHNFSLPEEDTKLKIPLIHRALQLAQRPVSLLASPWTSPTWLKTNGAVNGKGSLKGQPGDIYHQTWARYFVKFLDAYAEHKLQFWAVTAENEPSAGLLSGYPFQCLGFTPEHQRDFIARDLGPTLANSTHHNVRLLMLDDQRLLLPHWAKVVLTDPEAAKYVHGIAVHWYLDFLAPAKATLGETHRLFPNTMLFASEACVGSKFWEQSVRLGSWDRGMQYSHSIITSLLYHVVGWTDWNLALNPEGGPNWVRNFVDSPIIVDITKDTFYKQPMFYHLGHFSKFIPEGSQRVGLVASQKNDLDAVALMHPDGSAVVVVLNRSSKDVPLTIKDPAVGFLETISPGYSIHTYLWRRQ

Row | Structure (SMILES) | EC50 [3] | also measured
1 | Cc1cc(N2CCN(C(=O)c3cc(-c4ccccc4)nc4c3cnn4C(C)C)CC2)nc(C(C)C)n1 | 90 nM | CLint scaled [1]: 0.341 mL/min/kg; solubility [2]: 3 µM (≈ 1.45 µg/mL); Ratio (LLC-PK1): 1.26
2 | Cc1cc(N2CCN(C(=O)c3ccccc3C)CC2)nc(C(C)C)n1 | 150 nM | –
3 | Cc1cc(N2CCN(C(=O)c3ccncc3)CC2)nc(N2CCCC2)n1 | 6800 nM | –
4 | Cc1ccccc1C(=O)N1CCN(c2nc(N3CCCC3)nc3c2COC3)CC1 | 540 nM | –
5 | Cc1cc(N2CCN(C(=O)c3cnccn3)CC2)nc(N2CCCC2)n1 | 5300 nM | –
6 | Cc1cc(N2CCN(C(=O)c3ccc(C(C)(C)C)cc3)CC2)nc(N2CCCC2)n1 | – | CLint scaled [1]: 0.172 mL/min/kg; solubility [2]: 68 µM (≈ 27.7 µg/mL)
7 | CC(=O)N1CCN(c2cc(C)nc(N3CCCC3)n2)CC1 | 7100 nM | –
8 | Cc1cc(N2CCN(C(=O)c3ccccc3C)CC2)nc(N(C)C)n1 | 630 nM | –
9 | Cc1cc(N2CCN(C(=O)c3ccc(Cl)cc3)CC2)nc(N2CCCC2)n1 | 40 nM | –
10 | Cc1cc(N2CCN(C(=O)Cc3ccccc3)CC2)nc(N2CCCC2)n1 | 460 nM | –
11 | Cc1cc(N2CCN(C(=O)c3ccccc3C)CC2)nc(N2CCOCC2)n1 | 5200 nM | –
12 | Cc1ccc(C(=O)N2CCN(c3cc(C)nc(N4CCCC4)n3)CC2)cc1 | 70 nM | –
13 | CC(C)(C)c1ccc(C(=O)N2CCN(c3nc(N4CCCC4)nc4c3CCC4)CC2)cc1 | – | solubility [2]: 2 µM (≈ 0.867 µg/mL)
14 | Cc1cc(N2CC3(CN(C(=O)c4ccccc4C)C3)C2)nc(N2CCCC2)n1 | 2100 nM | –
15 | Cc1cc(N2CCN(C(=O)c3ccccc3C)CC2)nc(N2CCC(F)(F)C2)n1 | 1400 nM | –
16 | Cc1ccccc1C(=O)N1CCN(c2nc(N3CCCC3)nc3ccccc23)CC1 | 79 nM | CLint scaled [1]: 0.789 mL/min/kg; solubility [2]: 85 µM (≈ 34.1 µg/mL); Ratio (LLC-PK1): 2.19
17 | CC(C)(C)c1ccc(C(=O)N2CCN(c3nc(N4CCCC4)nc4c3COC4)CC2)cc1 | 150 nM | –
18 | Cc1cc(N2CC3CN(C(=O)c4ccccc4C)CC3C2)nc(N2CCCC2)n1 (configuration not stated) | 660 nM | –
19 | Cc1ccccc1C(=O)N1CCN(c2nc(N3CCCC3)nc3c2CCC3)CC1 | 30 nM | –
20 | Cc1ccccc1C(=O)N1CCN(c2nc(N3CCCC3)nc3c2COCC3)CC1 | 410 nM | –
21 | Cc1cc(N2CCN(C(=O)C3CCCCC3)CC2)nc(N2CCCC2)n1 | 360 nM | –
22 | Cc1cccc(C(=O)N2CCN(c3cc(C)nc(N4CCCC4)n3)CC2)c1 | 130 nM | –
23 | Cc1ccccc1C(=O)N1CCN(c2nc(N3CCCC3)ncc2C)CC1 | 120 nM | –
24 | Cc1cc(N2CCN(C(=O)c3ccc(-c4ccccc4)cc3)CC2)nc(N2CCCC2)n1 | 58 nM | –
25 | Cc1cc(N2CCN(C(=O)c3ccccc3)CC2)nc(N2CCCC2)n1 | 72 nM | –

More lines, main results first:

Row | EC50 [3] | Structure (SMILES) | also measured
26 | 29 nM | Cc1cc(N2CCN(C(=O)c3ccccc3C)CC2)nc(N2CCCCCC2)n1 | –
27 | 680 nM | Cc1ccccc1C(=O)N1CCN(c2ccnc(N3CCCC3)n2)CC1 | –
28 | 440 nM | Cc1cc(N2CCN(C(=O)c3ccccc3C)CC2)nc(N2CCC2)n1 | –
29 | 75 nM | Cc1cc(N2CCN(C(=O)c3ccccc3C)CC2)nc(N2CCCC2)n1 | CLint scaled [1]: 0.104 mL/min/kg; solubility [2]: 94 µM (≈ 34.4 µg/mL); Ratio (LLC-PK1): 1.38
30 | 63 nM | Cc1cc(N2CCN(C(=O)c3ccccc3Cl)CC2)nc(N2CCCC2)n1 | –
31 | 170 nM | Cc1cc(N2CCN(C(=O)c3ccccc3C)CC2)nc(N2CCCCC2)n1 | –
32 | > 25000 nM | Cc1ccccc1C(=O)N1CCN(c2cc(C(F)(F)F)nc(N3CCCC3)n2)CC1 | –
33 | 170 nM | Cc1cc(N2CCN(C(=O)c3ccccc3F)CC2)nc(N2CCCC2)n1 | –
34 | 100 nM | Cc1cc(N2CCN(C(=O)c3ccccc3C(F)(F)F)CC2)nc(N2CCCC2)n1 | –
35 | 220 nM | Cc1ccccc1C(=O)N1CCN(c2cc(CO)nc(N3CCCC3)n2)CC1 | –
36 | 1800 nM | Cc1cc(N2CCCN(C(=O)c3ccccc3C)CC2)nc(N2CCCC2)n1 | –
37 | 250 nM | Cc1ccccc1C(=O)N1CCN(c2nc(N3CCCC3)nc(C)c2C)CC1 | –
